Literature values in US9248112B2, “Hemodialysis and peritoneal dialysis solutions comprising one or more creatine compounds” (CREARENE LTD., priority 2009, dated 2016).
Where two headings read alike, the source gives them in different places.

Experiments:
[1] = not given; remark: listed apart in the source
[2] = target: T1, creatine transporter protein (CrT) (Homo sapiens, UniProt P48029); conditions: CrT in the plasma membrane
T1 sequence (P48029 1-635): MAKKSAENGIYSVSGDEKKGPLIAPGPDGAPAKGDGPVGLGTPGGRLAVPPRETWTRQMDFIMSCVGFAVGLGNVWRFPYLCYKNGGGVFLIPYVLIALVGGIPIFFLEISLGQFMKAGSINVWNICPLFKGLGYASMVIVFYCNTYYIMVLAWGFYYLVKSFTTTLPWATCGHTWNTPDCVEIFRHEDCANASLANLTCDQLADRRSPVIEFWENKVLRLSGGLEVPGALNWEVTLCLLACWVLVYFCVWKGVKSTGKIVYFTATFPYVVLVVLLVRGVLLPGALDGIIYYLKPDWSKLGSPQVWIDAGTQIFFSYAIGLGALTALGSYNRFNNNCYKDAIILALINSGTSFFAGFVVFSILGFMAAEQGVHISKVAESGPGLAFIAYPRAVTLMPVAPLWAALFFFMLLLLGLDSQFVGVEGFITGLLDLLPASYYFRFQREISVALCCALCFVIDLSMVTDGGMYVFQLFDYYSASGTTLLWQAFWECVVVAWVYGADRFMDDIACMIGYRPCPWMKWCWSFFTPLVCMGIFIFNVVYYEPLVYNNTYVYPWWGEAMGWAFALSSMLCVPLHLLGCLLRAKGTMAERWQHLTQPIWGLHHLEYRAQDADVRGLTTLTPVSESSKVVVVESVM

[3] = peritoneal dialysis solution, 37° C.
homocysteine [4] = test system: homocysteine
homocysteine [5] = conditions: animal model
[6] = not given; remark: listed apart in the source
[7] = adults, clinical studies

Row | SMILES | stability in acidic aqueous solutions (acidic aqueous solutions, temperatures over 60° C.) | storage stability in solution (neutral pH, cooled) | decrease in muscle cramps ([1]; 12 g orally 5 minutes before hemodialysis, four week treatment) | serum creatinin after treatment ([1]; after four week treatment period, 12 g orally before hemodialysis) | serum creatinin before treatment ([1]; start of four week treatment period) | Km [2] | concentration near the saturation limit of creatine [3] | homocystein levels (homocysteine [4]; 2 g/day, additionally vitamin B supplemented subjects) | homocystein levels (homocysteine [4]; humans, approximately 5 g Cr/day) | serum levels of homocysteine (homocysteine [5]) | serum creatine concentration ([6]; after a single oral dose of 5-20 g of creatine) | time to reach maximal levels in the blood stream ([6]; ingested (oral) creatine) | safe daily intake [7]
1 | CN(CC(=O)O)C(=N)N.O [creatine monohydrate] | some instability | can be stored for thirty days without losses | 60% | 12.4 mg/dL | 10.7 mg/dL |  |  |  |  |  |  |  | 
2 | CN(CC(=O)O)C(=N)N [creatine] |  |  |  |  |  | 25 to 30 µM | 24-25 g per liter | no such effects were seen | reduction of homocystein levels | reduce serum levels | 1-2 mM/l | two to four | up to 20 g daily
